The record followed here is ChEMBL document CHEMBL1141321, “Amphidinolides B6 and B7, cytotoxic macrolides from a symbiotic dinoflagellate Amphidinium species” (J Nat Prod, 2007).

One may read the IC50 as the midpoint of a concentration-inhibition curve. A lower IC50 goes with greater potency.

Converted amounts (≈) assume the structure as drawn.

The experiment has as its system DG-75. The experiment is described as follows: Cytotoxicity against human DG75 cells. It is filed as functional, cell-based.
Turning to `C=C1/C=C(\C)[C@@H](C)C[C@H](O)CC(=O)[C@H](O)[C@@H](O)[C@H](C)C[C@H](C)OC(=O)/C(C)=C/CC/C=C/[C@@H]2O[C@H]2C[C@H](C)C1` [AMPHIDINOLIDE B7], half-maximal inhibition (IC50) was put at 0.4 µg/mL (≈ 0.732 µM).
Take `C=C1/C=C(\C)[C@@H](C)C[C@H](O)CC(=O)[C@H](O)[C@@H](O)[C@H](C)C[C@H](C)OC(=O)[C@@H](C)[C@@H](O)CCCC[C@@H]2O[C@H]2C[C@H](C)C1` [AMPHIDINOLIDE B6]: the IC50 was 0.02 µg/mL (≈ 0.0353 µM).
`C=C1/C=C(\C)[C@@H](C)C[C@H](O)CC(=O)[C@H](O)[C@@H](O)[C@H](C)C[C@H](CO)OC(=O)/C(C)=C/CC/C=C/[C@@H]2O[C@H]2C[C@H](C)C1` [AMPHIDINOLIDE H] gave an IC50 of 0.001 µg/mL (≈ 0.00178 µM).
